Data reported in PubChem BioAssay (NCI).
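Briefly, cells in 96-well plates were exposed to five compound concentrations for 48 h, and endpoints were estimated by linear interpolation. GI50: concentration for 50% inhibition of growth. TGI: total growth inhibition.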

Legend:
Assay in all cases: DTP human tumour cell line panel, 48 h
[1] = system: 786-0 renal
[2] = system: A498 renal
[3] = system: A549 NSCLC
[4] = system: BT-549 breast
[5] = system: CCRF-CEM leukemia
[6] = system: DU-145 prostate
[7] = system: EKVX NSCLC
[8] = system: HCC-2998 colon
[9] = system: HCT-116 colon
[10] = system: HL-60(TB) leukemia
[11] = system: HOP-62 NSCLC
[12] = system: HOP-92 NSCLC
[13] = system: HS 578T breast
[14] = system: HT29 colon
[15] = system: IGROV1 ovarian
[16] = system: K-562 leukemia
[17] = system: KM12 colon
[18] = system: M14 melanoma
[19] = system: MALME-3M melanoma
[20] = system: MCF7 breast
[21] = system: MDA-MB-231 breast
[22] = system: MOLT-4 leukemia
[23] = system: NCI-H226 lung
[24] = system: NCI-H460 lung
[25] = system: NCI-H522 lung
[26] = system: NCI/ADR-RES ovarian
[27] = system: OVCAR-4 ovarian
[28] = system: OVCAR-5 ovarian
[29] = system: OVCAR-8 ovarian
[30] = system: PC-3 prostate
[31] = system: RPMI-8226 leukemia
[32] = system: RXF 393 renal
[33] = system: SF-268 CNS
[34] = system: SF-539 CNS
[35] = system: SK-MEL-2 melanoma
[36] = system: SK-MEL-28 melanoma
[37] = system: SK-MEL-5 melanoma
[38] = system: SN12C renal
[39] = system: SNB-75 CNS
[40] = system: SW-620 colon
[41] = system: TK-10 renal
[42] = system: UACC-257 melanoma
[43] = system: UACC-62 melanoma
[44] = system: UO-31 renal

CSC1=NCC2(S1)c1ccccc1N(C(=O)OC(C)(C)C)C2N1CCCCC1 (stereo not drawn)
GI50 [1]: 16.2 µM | TGI [1]: > 100 µM | GI50 [2]: > 100 µM | TGI [2]: > 100 µM | GI50 [3]: > 100 µM | TGI [3]: > 100 µM | GI50 [4]: > 100 µM | TGI [4]: > 100 µM | GI50 [5]: > 100 µM | TGI [5]: > 100 µM | GI50 [6]: > 100 µM | TGI [6]: > 100 µM | GI50 [7]: > 100 µM | TGI [7]: > 100 µM | GI50 [8]: 31 µM | TGI [8]: > 100 µM | GI50 [9]: 40.6 µM | TGI [9]: > 100 µM | GI50 [10]: 63.7 µM | TGI [10]: > 100 µM | GI50 [11]: 23.4 µM | TGI [11]: > 100 µM | GI50 [12]: 51.5 µM | TGI [12]: > 100 µM | GI50 [13]: 81.8 µM | TGI [13]: > 100 µM | GI50 [14]: > 100 µM | TGI [14]: > 100 µM | GI50 [15]: > 100 µM | TGI [15]: > 100 µM | GI50 [16]: 73.8 µM | TGI [16]: > 100 µM | GI50 [17]: > 100 µM | TGI [17]: > 100 µM | GI50 [18]: > 100 µM | TGI [18]: > 100 µM | GI50 [19]: 15.3 µM | TGI [19]: > 100 µM | GI50 [20]: > 100 µM | TGI [20]: > 100 µM | GI50 [21]: 41.8 µM | TGI [21]: > 100 µM | GI50 [22]: > 100 µM | TGI [22]: > 100 µM | GI50 [23]: > 100 µM | TGI [23]: > 100 µM | GI50 [24]: 69.6 µM | TGI [24]: > 100 µM | GI50 [25]: 27.5 µM | TGI [25]: > 100 µM | GI50 [26]: > 100 µM | TGI [26]: > 100 µM | GI50 [27]: > 100 µM | TGI [27]: > 100 µM | GI50 [28]: > 100 µM | TGI [28]: > 100 µM | GI50 [29]: > 100 µM | TGI [29]: > 100 µM | GI50 [30]: 34.7 µM | TGI [30]: > 100 µM | GI50 [31]: > 100 µM | TGI [31]: > 100 µM | GI50 [32]: 78 µM | TGI [32]: > 100 µM | GI50 [33]: 74.4 µM | TGI [33]: > 100 µM | GI50 [34]: > 100 µM | TGI [34]: > 100 µM | GI50 [35]: > 100 µM | TGI [35]: > 100 µM | GI50 [36]: > 100 µM | TGI [36]: > 100 µM | GI50 [37]: > 100 µM | TGI [37]: > 100 µM | GI50 [38]: > 100 µM | TGI [38]: > 100 µM | GI50 [39]: 31.7 µM | TGI [39]: 88.4 µM | GI50 [40]: > 100 µM | TGI [40]: > 100 µM | GI50 [41]: > 100 µM | TGI [41]: > 100 µM | GI50 [42]: > 100 µM | TGI [42]: > 100 µM | GI50 [43]: 76.6 µM | TGI [43]: > 100 µM | GI50 [44]: 78.7 µM | TGI [44]: > 100 µM
